Source: PMC5703966, “Systemic clearance and brain distribution of carbazole-based cyanine compounds as Alzheimer’s disease drug candidates” (Scientific Reports, 2017)
Read-outs that look alike come from different tables or passages of the source.

Columns and labels:
[1] = Liver microsomes stability with UDPGA and alamethacin (glucuronidation); type: in vitro ADME; settings: 0.5 mg/mL microsomes protein, read-out: t 1/2 in liver microsomes with UDPGA and alamethacin
Source text: Microsomes and hepatocytes stability procedures and their parameters (the apparent intrinsic clearance (Cl int,app), unbound apparent intrinsic clearance (Cl u, int,app), scaled intrinsic clearance (Cl int,scaled), unbound scaled intrinsic clearance (Cl u, int,scaled), and Cl hep) calculation methods were shown in supplemental information (Supplemental Methods). The metabolites identification methods including LC-MS conditions was also found in supplemental information (Supplemental Methods). Several marker compounds as quality control were assayed (Table S6).
(§1) MS/MS. Natural logarithm of peak area ratios (compound peak area normalized by IS peak area) were plotted against time and half-life calculated. […]
(§2) In vitro stability in liver microsomes and hepatocytes
Half-life (t1/2) of SLM or SLOH in liver microsomes was determined in duplicate. In phase I reaction, the compound (1 μM) was incubated with liver microsomes (0.5 mg/mL) in 100 mM sodium phosphate buffer (pH 7.4) including 81 mM Na2HPO4 and 19 mM NaH2PO4 ) at 37 °C, the reaction mixture was prewarmed at 37 °C for 2 minutes before adding NADPH (1.0 mM). In phase II reaction, the compound (1 μM) was incubated with liver microsomes (0.5 mg/mL) in 100 mM Tris-HCl buffer (pH 7.4) containing 5 mM MgCl2, 10 μg/mL alamethicin, and 2% (w/v) BSA. After pre-incubated on ice for 15 min, the reactions were initiated with the addition of UDPGA (5.0 mM). Aliquots of the reaction mixture at 0, 5, 10, 15, 30 or 45 minutes were added to 4 folds acetonitrile (ACN) containing internal standard (IS), and the samples were centrifuged at 9,659 g for 5 mins before LC-MS/MS analysis of substrate […]
disappearance. […]
Hepatocytes were suspended at 0.5 × 10^6 viable cells/mL of HT Medium and prewarmed at 37 °C for 10 minutes. Incubations were initiated with the addition of SLM and SLOH (final concentration=1 μM) and were conducted at 37 °C, 75% relative humidity, and 5% CO2. The reaction was stopped at 0, 5, 15, 30, 60, 90, 120 minutes by the addition of 4 folds ACN containing berberine chloride as internal standard

[2] = test system: human hepatocytes; assay: Hepatocyte stability; type: in vitro ADME; settings: well-stirred model
Method: as §1
placed into the sample chamber (indicated by the red ring) with 400 µL of PBS into the adjacent chamber.
The plate was sealed with a self-adhesive lid and incubated at 37 °C on an orbital shaker (1.5 g approx.) for 4 h. Aliquots (100 µL) were removed from each side of the insert, and analyzed after protein precipitation using 4 folds acetonitrile (ACN) containing berberine chloride as internal standard (IS) by LC-MS/MS (Analytical me thod seen below). The experimental procedure outlined in the Thermo Scientific RED device systems brochure was adopted in the present study . The several positive controls […]
as §2
Half-life (t1/2) of SLM or SLOH in liver microsomes was determined in duplicate. In phase I reaction, […]
buffer (pH 7.4) including 81 mM Na2HPO4 and 19 mM NaH2PO4 ) at 37 °C, the reaction mixture was prewarmed at 37 °C for 2 minutes before adding NADPH (1.0 mM). In phase II reaction, the compound […]
5 mM MgCl2, 10 μg/mL alamethicin, and 2% (w/v) BSA. […]
reactions were initiated with the addition of UDPGA (5.0 mM). […]

[3] = biological target: T1, OATP2B1 (Homo sapiens, UniProt O94956); assay: OATP substrate identification, uptake in stably transfected HEK293 cells; settings: for uptake in cells transfected with OATP2B1 versus WT cells: 1 and 10 μM, 10 mins
T1 sequence (O94956 1-709): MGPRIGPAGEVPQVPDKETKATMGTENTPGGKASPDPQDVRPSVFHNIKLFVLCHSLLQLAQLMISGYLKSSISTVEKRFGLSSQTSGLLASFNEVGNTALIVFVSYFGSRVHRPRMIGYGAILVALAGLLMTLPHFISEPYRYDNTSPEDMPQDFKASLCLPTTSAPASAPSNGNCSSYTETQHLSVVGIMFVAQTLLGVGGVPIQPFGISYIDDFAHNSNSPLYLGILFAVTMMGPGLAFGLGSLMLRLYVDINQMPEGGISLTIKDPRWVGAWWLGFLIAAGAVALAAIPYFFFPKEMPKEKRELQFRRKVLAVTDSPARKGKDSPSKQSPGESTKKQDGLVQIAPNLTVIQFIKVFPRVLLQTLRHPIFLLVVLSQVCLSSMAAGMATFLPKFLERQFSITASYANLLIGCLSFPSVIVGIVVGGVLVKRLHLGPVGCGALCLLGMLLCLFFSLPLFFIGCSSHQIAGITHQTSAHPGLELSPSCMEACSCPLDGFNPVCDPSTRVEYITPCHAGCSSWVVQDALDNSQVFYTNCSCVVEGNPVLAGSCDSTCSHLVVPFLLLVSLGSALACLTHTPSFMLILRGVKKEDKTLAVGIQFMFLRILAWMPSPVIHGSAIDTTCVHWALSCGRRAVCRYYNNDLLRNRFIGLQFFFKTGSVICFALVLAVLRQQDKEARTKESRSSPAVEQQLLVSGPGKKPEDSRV
Method: Daily changes of medium were performed and on the second day after seeding using medium containing 10 mM sodium butyrate.
Stably transfected HEK cells and control vector-transfected HEK293 cells were first washed (3 × 1 mL) with prewarmed HBSS (pH 7.4) and then were incubated with 250 μL of HBSS containing compounds at concentrations of 1 and 10 μM. Cells were incubated for 10 mins at 37 °C for all experiments. After incubation, uptake was stopped by aspirating the incubation solution and washing each well 3 times with 200 μL of ice-old HBSS. The cells were lysed in 150 μL of 1 M NaOH for 30 mins, and then neutralized by adding equal volumes of 1 M HCl.
The following equations (3 and 4) were used to calculate the uptake rates (U, pmol/mg/min) and the OATP1B1, OATP1B3, OATP2B1 and OATP1A2 uptake ratio (UR):3 U=Clysate/P×T 4 UR=UOATP1B1/1B3/2B1/1A2/UHEK293−MOCK where C lysate is the compound concentration in cell lysates. P is the protein concentration in cell lysates. T is the incubation time. U OATP1B1/1B3/2B1/1A2 is the uptake rate obtained in HEK293 stably transfected OATP1B1, OATP1B3, OATP2B1 or OATP1A2 transportation. U HEK293-MOCK is the uptake rate obtained in control vector-transfected HEK293 transportation.

[4] = test system: AD model mice; design: method as in PMID 28032988; settings: cited from earlier work

SMILES | half-life at 1 μM ([1]; ICR/CD-1, mouse, pH 7.4, mice) [h] | half-life at 1 μM ([1]; pH 7.4, human) [h] | Hepatocyte scaled Cl hep [2] [mL/min/kg] | OATP2B1 substrate identification [3] | uptake in cells transfected with OATP2B1 versus WT cells [3] | effect on pathological symptom and memory deterioration [4]
COCCOCCn1c2ccccc2c2cc(/C=C/c3cc[n+](C)c4ccccc34)ccc21.[I-] [SLM, (E)-4-(2-(9-(2-(2-methoxyethoxy)ethyl)-9H-carbazol-3-yl)-vinyl)-1-methyl-quinolin-1-iumiodide] | > 8.33 | > 8.33 | 0.833 ± 0.167 | substrates | doubled | alleviate the pathological symptom and memory deterioration
COCCOCCn1c2ccccc2c2cc(/C=C/c3cc[n+](CCO)c4ccccc34)ccc21 [SLOH, (E)-1-(2-hydroxyethyl)-4-(2-(9-(2-(2-metho-xyethoxy)-ethyl)-9H-carbazol-3-yl)vinyl) quinolin-1-ium chloride] | > 8.33 | > 8.33 | 1 ± 0.167 | substrates | doubled | alleviate the pathological symptom and memory deterioration
